Measurements taken from PubChem BioAssay (NCI).
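The compound was tested at five concentrations on cells cultured in 96-well plates, with a 48-hour exposure period. GI50 = concentration required for 50% inhibition of growth. TGI: concentration producing complete growth inhibition.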

Legend:
Assay in all cases: NCI-60 cell line screen, 48 h
SF-268 CNS = system: SF-268 CNS
SF-539 CNS = system: SF-539 CNS
HOP-62 NSCLC = system: HOP-62 NSCLC
786-0 renal = system: 786-0 renal
HCT-15 colon = system: HCT-15 colon
SK-MEL-2 melanoma = system: SK-MEL-2 melanoma
UACC-257 melanoma = system: UACC-257 melanoma
UACC-62 melanoma = system: UACC-62 melanoma
CAKI-1 renal = system: CAKI-1 renal
SK-OV-3 ovarian = system: SK-OV-3 ovarian
SNB-19 CNS = system: SNB-19 CNS
HCT-116 colon = system: HCT-116 colon
MDA-MB-435 = system: MDA-MB-435
EKVX NSCLC = system: EKVX NSCLC
NCI-H226 lung = system: NCI-H226 lung
PC-3 prostate = system: PC-3 prostate
M14 melanoma = system: M14 melanoma
UO-31 renal = system: UO-31 renal
HL-60(TB) leukemia = system: HL-60(TB) leukemia

Row | SMILES | TGI (SF-268 CNS) [µM] | TGI (SF-539 CNS) [µM] | TGI (HOP-62 NSCLC) [µM] | TGI (786-0 renal) [µM] | TGI (HCT-15 colon) [µM] | TGI (SK-MEL-2 melanoma) [µM] | TGI (UACC-257 melanoma) [µM] | TGI (UACC-62 melanoma) [µM] | TGI (CAKI-1 renal) [µM] | TGI (SK-OV-3 ovarian) [µM] | TGI (SNB-19 CNS) [µM] | TGI (HCT-116 colon) [µM] | TGI (MDA-MB-435) [µM] | TGI (EKVX NSCLC) [µM] | TGI (NCI-H226 lung) [µM] | TGI (PC-3 prostate) [µM] | TGI (M14 melanoma) [µM] | TGI (UO-31 renal) [µM] | TGI (HL-60(TB) leukemia) [µM] | GI50 (HL-60(TB) leukemia) [µM]
1 | CN(C)CC(C)(C)CN1c2ccccc2Sc2ccccc21 | 27.5 | 34.3 | 25.5 | 25.5 | > 100 | 28.8 | 24.7 | 28.2 | 24.7 | 26 | 29.5 | 26.7 | 26.5 | 28.8 | 33.4 | 25.5 | 22.4 | – | – | –
2 | CC#CC#C/C=C1\C=CC2(OC=CC2O)O1 (stereo unspecified) | > 23.3 | > 23.3 | > 23.3 | > 23.3 | > 23.3 | > 23.3 | > 23.3 | > 23.3 | > 23.3 | > 23.3 | > 23.3 | 22.9 | – | > 16.7 | > 23.3 | – | > 23.3 | > 23.3 | > 23.3 | –
3 | CN(C)NC1=NS(=O)(=O)c2cc3c(=O)n(C)[nH]c3cc2S1 | > 10 | > 10 | > 10 | > 10 | > 10 | > 10 | > 10 | – | > 10 | > 10 | > 10 | > 10 | – | > 10 | > 10 | > 10 | > 10 | > 10 | > 10 | –
4 | CC(C)CC1N=C(OCc2ccccc2)OC1=O (stereo unspecified) | > 100 | > 100 | > 100 | > 100 | > 100 | > 100 | > 100 | – | > 100 | > 100 | > 100 | > 100 | > 100 | > 100 | > 100 | > 100 | > 100 | > 100 | – | –
5 | S=C1NNC2(C(=S)N1)c1ccccc1-c1ccccc12 | > 10 | > 10 | > 10 | > 10 | > 10 | – | > 10 | > 10 | > 10 | > 10 | – | – | – | > 10 | > 10 | – | > 10 | > 10 | > 10 | –
6 | COC(=O)C1=CCC2c3[nH]c4ccccc4c3CCN2C1 (stereo unspecified) | > 354 | > 354 | > 354 | > 354 | > 354 | > 354 | > 354 | > 354 | > 354 | > 354 | > 354 | > 354 | – | > 354 | > 354 | – | – | – | > 354 | –
7 | Cn1c(=O)n(C2(C)CSC2)c2ccccc21 | > 100 | > 100 | > 100 | > 100 | > 100 | – | > 100 | > 100 | > 100 | > 100 | > 100 | > 100 | – | > 100 | > 100 | – | > 100 | > 100 | > 100 | –
8 | CC(N)C(C)c1ccccc1 (stereo unspecified) | > 100 | > 100 | > 100 | > 100 | > 100 | > 100 | > 100 | > 100 | > 100 | > 100 | > 100 | > 100 | – | > 100 | > 100 | – | > 100 | > 100 | > 100 | –
9 | CN(/N=C/C=N/N(C)C1=NCCN1)C1=NCCN1 | > 100 | > 100 | > 100 | > 100 | > 100 | – | > 100 | > 100 | > 100 | > 100 | > 100 | > 100 | > 100 | > 100 | > 100 | > 100 | > 100 | > 100 | – | –
10 | CSC1=Nc2ccccc2N=C(c2ccccc2)C1 | > 100 | > 100 | > 100 | > 100 | > 100 | > 100 | > 100 | > 100 | > 100 | > 100 | > 100 | 45.6 | – | > 100 | > 100 | – | > 100 | > 100 | 34.9 | –
11 | COc1cccc(/C=N/[N-]C(N)=O)c1[O-].[Co+2].[OH3+].c1ccncc1 | > 100 | > 100 | > 100 | > 100 | > 100 | > 100 | > 100 | > 100 | > 100 | > 100 | – | > 100 | – | > 100 | > 100 | – | > 100 | > 100 | > 100 | 30.8
